Reference: PubChem BioAssay (NCI)
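Briefly, cells in 96-well plates were exposed to five compound concentrations for 48 h, and endpoints were estimated by linear interpolation. Abbreviation: GI50, concentration required for 50% inhibition of growth. Definition used: TGI = concentration required for complete inhibition of growth.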

Experiments:
Experiment in all cases: DTP human tumour cell line panel, 48 h; in the data active = GI50 below about 0.43 µM; inactive = the rest
[1] = tested on: 786-0 renal
[2] = tested on: A498 renal
[3] = tested on: A549 NSCLC
[4] = tested on: ACHN renal
[5] = tested on: BT-549 breast
[6] = tested on: CAKI-1 renal
[7] = tested on: CCRF-CEM leukemia
[8] = tested on: COLO 205 colon
[9] = tested on: DU-145 prostate
[10] = tested on: EKVX NSCLC
[11] = tested on: HCC-2998 colon
[12] = tested on: HCT-116 colon
[13] = tested on: HCT-15 colon
[14] = tested on: HL-60(TB) leukemia
[15] = tested on: HOP-62 NSCLC
[16] = tested on: HOP-92 NSCLC
[17] = tested on: HS 578T breast
[18] = tested on: HT29 colon
[19] = tested on: IGROV1 ovarian
[20] = tested on: K-562 leukemia
[21] = tested on: KM12 colon
[22] = tested on: LOX IMVI melanoma
[23] = tested on: M14 melanoma
[24] = tested on: MALME-3M melanoma
[25] = tested on: MCF7 breast
[26] = tested on: MDA-MB-231 breast
[27] = tested on: MDA-MB-435
[28] = tested on: MOLT-4 leukemia
[29] = tested on: NCI-H226 lung
[30] = tested on: NCI-H23 lung
[31] = tested on: NCI-H460 lung
[32] = tested on: NCI-H522 lung
[33] = tested on: NCI/ADR-RES ovarian
[34] = tested on: OVCAR-3 ovarian
[35] = tested on: OVCAR-4 ovarian
[36] = tested on: OVCAR-5 ovarian
[37] = tested on: OVCAR-8 ovarian
[38] = tested on: PC-3 prostate
[39] = tested on: RPMI-8226 leukemia
[40] = tested on: RXF 393 renal
[41] = tested on: SF-268 CNS
[42] = tested on: SF-295 CNS
[43] = tested on: SF-539 CNS
[44] = tested on: SK-MEL-2 melanoma
[45] = tested on: SK-MEL-28 melanoma
[46] = tested on: SK-MEL-5 melanoma
[47] = tested on: SK-OV-3 ovarian
[48] = tested on: SN12C renal
[49] = tested on: SNB-19 CNS
[50] = tested on: SNB-75 CNS
[51] = tested on: SR leukemia
[52] = tested on: SW-620 colon
[53] = tested on: T-47D breast
[54] = tested on: TK-10 renal
[55] = tested on: U251 CNS
[56] = tested on: UACC-257 melanoma
[57] = tested on: UACC-62 melanoma
[58] = tested on: UO-31 renal

CCN1C(=O)N(CC)C2C1NN=c1s/c(=C\c3ccccc3F)c(=O)n12 (centres undefined)
> 100000 nM: TGI [3] | TGI [4] | TGI [6] | TGI [7] | TGI [9] | TGI [10] | TGI [13] | TGI [15] | TGI [17] | TGI [20] | TGI [22] | TGI [23] | TGI [24] | TGI [28] | TGI [29] | TGI [30] | TGI [35] | TGI [36] | TGI [38] | TGI [45] | TGI [48] | TGI [49] | TGI [52] | TGI [53] | TGI [55] | TGI [56]
> 38900 nM: TGI [44]
> 37700 nM: TGI [39]
73.7 nM: TGI [8]
71.1 nM: TGI [50]
78.9 nM: TGI [34]
> 93300 nM: TGI [5]
52800 nM: TGI [1]
203 nM: TGI [46]
1360 nM: TGI [40]
> 84600 nM: TGI [26]
> 69400 nM: TGI [58]
64 nM: TGI [2]
52 nM: TGI [27]
> 74700 nM: TGI [51]
> 63600 nM: TGI [25] | TGI [33] | TGI [54]
69000 nM: TGI [16]
> 48900 nM: TGI [21]
> 43400 nM: TGI [19]
77500 nM: TGI [47]
> 40600 nM: TGI [31]
active: GI50 [1] 61 nM | GI50 [2] 15.4 nM | GI50 [3] 41.9 nM | GI50 [4] 52.2 nM | GI50 [5] 35.8 nM | GI50 [6] 32.3 nM | GI50 [7] 38.6 nM | GI50 [8] 27.1 nM | GI50 [9] 39.8 nM | GI50 [10] 48.1 nM | GI50 [11] 33.4 nM | GI50 [12] 33.3 nM | GI50 [13] 31.6 nM | GI50 [14] 23.9 nM | GI50 [15] 54.5 nM | GI50 [17] 34.5 nM | GI50 [18] 31.9 nM | GI50 [19] 51.2 nM | GI50 [20] 30.1 nM | GI50 [21] 27.8 nM | GI50 [22] 41.1 nM | GI50 [23] 31.1 nM | GI50 [25] 32.5 nM | GI50 [26] 45.7 nM | GI50 [27] 14.8 nM | GI50 [28] 41.9 nM | GI50 [30] 64.1 nM | GI50 [31] 35.5 nM | GI50 [32] 19.2 nM | GI50 [33] 29.6 nM | GI50 [34] 28.2 nM | GI50 [35] 66.8 nM | GI50 [36] 62.8 nM | GI50 [37] 35.7 nM | GI50 [38] 40 nM | GI50 [39] 41.5 nM | GI50 [40] 22.4 nM | GI50 [41] 67.9 nM | GI50 [42] 24.2 nM | GI50 [43] 23.6 nM | GI50 [44] 48.9 nM | GI50 [46] 28.9 nM | GI50 [47] 54 nM | GI50 [48] 52.2 nM | GI50 [49] 48.9 nM | GI50 [50] 13.3 nM | GI50 [51] 27.8 nM | GI50 [52] 37.9 nM | GI50 [55] 35.4 nM | GI50 [57] 50.5 nM | GI50 [58] 170 nM
69.6 nM: TGI [43]
> 58800 nM: TGI [11]
60.7 nM: TGI [14]
1300 nM: TGI [32]
> 67400 nM: TGI [41]
inactive: GI50 [16] 1110 nM | GI50 [24] 15400 nM | GI50 [29] 11200 nM | GI50 [45] 62400 nM | GI50 [53] 35700 nM | GI50 [54] 1680 nM | GI50 [56] 2110 nM
14300 nM: TGI [12]
> 80400 nM: TGI [57]
> 49800 nM: TGI [42]
